Values after ≈ are worked out from the molar mass of the structure shown. Like-named read-outs stand apart in the source and are kept apart here.
Columns and labels:
[1] = Lymphocyte Viability Assay (LCV); assay type: cell-based, murine; settings: mouse, splenocytes, read-out: % LCV (percentage of positive control)
Experimental: (§1) II. Lymphocyte Viability Assay
(§2) 1. Compounds were similarly tested in parallel with the MLR to determine their toxic effects on lymphoid cells using the lymphocyte viability assay (LCV).
(§3) 2. Serial, log10 dilutions of the pure compound were made in absolute ethanol, and 10 μl of each dilution was added to wells of microtiter test plates, and allowed to dry.
(§4) 3. Murine splenocyte suspensions were prepared from BALB/c mice. […] The cell concentrations were adjusted to 2.5×10^6 cells/ml.
(§5) 4. A volume of 0.2 ml of the splenocyte suspension was added to replicate test wells. Positive control wells received splenocyte suspensions in the absence of the test compounds.
(§6) 5. Plates were incubated at 37° C. for 86 hours. At the end of the incubation period, a volume of 75 μl of a 2.0 mg/ml solution of MTT was added to each well, and the plates were returned to the incubator for an additional 5 hours.
(§7) 6. The supernatants from each microwell were then removed, and a volume of 200 μl of isopropanol was added and the contents mixed.
(§8) 7. Values were obtained by comparing the optical densities (determined at 570 and 650 nm) of wells containing the test compounds with those of wells containing cells and medium only (positive control). The results are expressed as a percentage of the positive control.
(§9) 8. Replicate counts were averaged, and the data reported as a percentage of the positive control. An LCV value of less than 60% of the positive control is an indication of cytotoxicity of the test compounds for lymphoid cells.

P388 cells = experiment: Antiproliferative effects against P388 cells (antitumor, MTT); assay type: cell-based; settings: for IC50: Mus musculus, P388, 48 hour exposure; for P388 IC50: 48 hour exposure
Experimental: IV. Antitumor Methodology
To assess the antiproliferative effects against P388 cells, 200 μl cultures (96-well tissue culture plates, Nunc, Denmark) were established at 1×10^5 cells/ml in drug-free medium or medium containing the pure compounds/crude extracts at a final dilution or 1:500 and at various concentrations. Solvent for all dilutions was methanol, which was removed from plates under vacuum. All experimental cultures were initiated in media containing Gentamicin sulfate (50 μg/ml; Schering Corporation, Kenilworth, NJ).
To quantitate the effects of pure compounds/crude extracts on cell proliferation, 75 μl of warm growth medium containing 5 mg/ml MTT was added to each well, cultures were returned to the incubator, and were left undisturbed for 90 minutes. To spectrophotometrically quantitate formation of reduced formazan, plates were centrifuged (900×g, 5 minutes), culture fluids removed by aspiration, and 200 μl of acidified isopropanol (2 ml concentrated HCl/liter isopropanol) added per well. The absorbance of the resulting solutions were measured at 570 nm with a plate reader (MR700 Microplate Reader, Dynatech Laboratories, Chantilly, VA).

[2] = system: murine splenocyte suspensions (BALB/c and C57BL/6J mice); experiment: Mixed Lymphocyte Reaction (MLR); assay type: cell-based; settings: for activity at 0.05 µg/mL / activity at 0.2 µg/mL / activity at 0.8 µg/mL / activity at 3.1 µg/mL / activity at 12.5 µg/mL / activity at 50 µg/mL: Mus musculus, Splenocyte, read-out: % MLR (percentage of positive control)
Experimental: I. Mixed Lymphocyte Reaction
1. Murine splenocyte suspensions were prepared separately from BALB/c and C57BL/6J mice. […] The cell concentrations were adjusted to 2.5×10^6 cells/ml. Aliquots of each cell population were removed to separate tubes, and the remaining two cell suspensions combined to one tube.
as §3
3. A volume of 0.2 ml of the combined splenocyte suspensions was added to triplicate test wells. Positive control wells received combined splenocyte suspensions in the absence of the test compounds. Negative control wells consisted of separate (not mixed) splenocyte suspensions cultured in the absence of the test compounds.
4. Plates were incubated in 5% CO2 at 37° C. for 86 hours.
5. A volume of 0.05 ml of ^3 H-thymidine (20 μCi/ml) was added to each well, and the plates were incubated in 5% CO2 at 37° C. for an additional 5 hours.
6. The contents of each well of the microtiter plates were harvested onto glass fiber filter strips, and the resulting filter discs placed in scintillation vials to which 2.0 ml of scintillation fluid was added.
7. The amount of incorporated ^3 H-thymidine was determined by counting the vials in a liquid scintillation counter.
8. Triplicate counts were averaged, and the data reported as a percentage of the positive control.

[3] = system: lymphoid cells (murine BALB/c splenocytes); experiment: Lymphocyte Viability Assay (LCV); assay type: cell-based
Experimental: as §1, §2, §3, §4, §5, §6, §7, §8, §9

| Structure (SMILES) | viability ([1]; 0.05 μg/ml) | viability ([1]; 0.2 μg/ml) | viability ([1]; 0.8 μg/ml) | viability ([1]; 3.1 μg/ml) | viability ([1]; 12.5 μg/ml) | viability ([1]; 50 μg/ml) | IC50 (P388 cells) | activity at 0.05 µg/mL ([2]; 0.05 μg/ml) | activity at 0.2 µg/mL ([2]; 0.2 μg/ml) | activity at 0.8 µg/mL ([2]; 0.8 μg/ml) | activity at 3.1 µg/mL ([2]; 3.1 μg/ml) | activity at 12.5 µg/mL ([2]; 12.5 μg/ml) | activity at 50 µg/mL ([2]; 50 μg/ml) | other results |
| --- | --- | --- | --- | --- | --- | --- | --- | --- | --- | --- | --- | --- | --- | --- |
| CCCCCCCCCCCCCCCC=O [CH3 (CH2)14 CHO] | 237% | 182% | 161% | 202% | 153% | 132% | 44 µg/mL (≈ 183 µM) | 59% | 94% | 80% | 73% | 36% | 0% | – |
| C#CC(/C=C/CCCCCCCCCCCCCCC)OC(C)=O (stereo not shown) [CH3 (CH2)14 CH=CH--CHOAc--C≡CH] | 58% | 53% | 30% | 30% | 23% | 11% | 100 µg/mL (≈ 299 µM) | 73% | 0% | 0% | 0% | 0% | 0% | – |
| C#CC(O)C=CCCCCCCCCC (stereo not shown) [CH3 (CH2)8 CH=CH--CHOH--C≡CH] | – | – | – | – | – | – | – | – | – | – | – | – | – | % LCV (percentage of positive control) ([3]; 0.05 μg/ml): 35%; % LCV (percentage of positive control) ([3]; 0.2 μg/ml): 44%; % LCV (percentage of positive control) ([3]; 0.8 μg/ml): 30%; % LCV (percentage of positive control) ([3]; 3.1 μg/ml): 26%; % LCV (percentage of positive control) ([3]; 12.5 μg/ml): 5%; % LCV (percentage of positive control) ([3]; 50 μg/ml): 0%; P388 IC50 (P388 cells): 27.0 µg/mL; % MLR (percentage of positive control) ([2]; 0.05 μg/ml): 120%; % MLR (percentage of positive control) ([2]; 0.2 μg/ml): 0%; % MLR (percentage of positive control) ([2]; 0.8 μg/ml): 0%; % MLR (percentage of positive control) ([2]; 3.1 μg/ml): 0%; % MLR (percentage of positive control) ([2]; 12.5 μg/ml): 0%; % MLR (percentage of positive control) ([2]; 50 μg/ml): 0% |
| CCCCCCCCCCCCCCC/C=C/C(O)C#N (stereo not shown) [CH3 (CH2)14 CH=CH--CHOH--C≡N] | 132% | 135% | 161% | 144% | 77% | 37% | 28 µg/mL (≈ 95.4 µM) | 60% | 89% | 85% | 80% | 0% | 0% | – |
| C#CC(O)C=CCCCCC (stereo not shown) [CH3 (CH2)4 CH= CH--CHOH--C≡CH] | – | – | – | – | – | – | – | – | – | – | – | – | – | % LCV (percentage of positive control) ([3]; 0.05 μg/ml): 109%; % LCV (percentage of positive control) ([3]; 0.2 μg/ml): 121%; % LCV (percentage of positive control) ([3]; 0.8 μg/ml): 119%; % LCV (percentage of positive control) ([3]; 3.1 μg/ml): 89%; % LCV (percentage of positive control) ([3]; 12.5 μg/ml): 65%; % LCV (percentage of positive control) ([3]; 50 μg/ml): 7%; P388 IC50 (P388 cells): 74.0 µg/mL; % MLR (percentage of positive control) ([2]; 0.05 μg/ml): 112%; % MLR (percentage of positive control) ([2]; 0.2 μg/ml): 14%; % MLR (percentage of positive control) ([2]; 0.8 μg/ml): 82%; % MLR (percentage of positive control) ([2]; 3.1 μg/ml): 0%; % MLR (percentage of positive control) ([2]; 12.5 μg/ml): 0%; % MLR (percentage of positive control) ([2]; 50 μg/ml): 0% |
| C#CC(C)(O)/C=C/CCCCCCCCCCCCCCC (stereo not shown) [CH3 (CH2)14 CH=CH--COH(CH3)--C≡CH] | 53% | 107% | 118% | 109% | 54% | 5% | 67 µg/mL (≈ 219 µM) | 152% | 161% | 171% | 115% | 65% | 0% | – |
| C#CC(O)CCCCCCCCCCCCCCCCC (stereo not shown) [CH3 (CH2)16 CHOH--C≡CH] | 61% | 68% | 39% | 56% | 7% | 2% | 48 µg/mL (≈ 163 µM) | 0% | 0% | 0% | 0% | 0% | 0% | – |
| CC#CC(O)/C=C/CCCCCCCCCCCCCCC (stereo not shown) [CH3 (CH2)14 CH=CH--CHOH--C≡C--CH3] | 154% | 107% | 75% | 86% | 67% | 60% | 200 µg/mL (≈ 652 µM) | 137% | 143% | 83% | 0% | 0% | 0% | – |
| CCCCCCCCCCCCCCCCO [CH3 (CH2)14 CH2 OH] | 70% | 86% | 37% | 98% | 0% | 0% | 9.3 µg/mL (≈ 38.4 µM) | 136% | 128% | 127% | 137% | 0% | 0% | – |
| CCCCCCCCCCCCCCC/C=C/C=O [CH3 (CH2)14 CH=CH--CHO] | 130% | 175% | 181% | 186% | 89% | 5% | 15.1 µg/mL (≈ 56.7 µM) | 150% | 105% | 135% | 146% | 0% | 0% | – |
